This assay deals with T1, MAP2K1 (MEK1) (Homo sapiens, UniProt Q02750).
T1 construct: purchased Thermo Fisher Scientific (Life Technologies) SelectScreen
In words: SelectScreen Z'LYTE. The settings on record: ATP 100 µM. Format: biochemical. In outline: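 SelectScreen broad panel; activity (Z'LYTE, Adapta) plus binding formats. ATP: Km app for CSF1R Z'LYTE; 10 for CAMK1 Adapta. Readout = % per kinase.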

Our source for the inhibition values is paper PMC6934184, “Selective DNA-PKcs inhibition extends the therapeutic index of localized radiotherapy and chemotherapy” (The Journal of Clinical Investigation, 2019).

T1 sequence (Q02750 whole entry): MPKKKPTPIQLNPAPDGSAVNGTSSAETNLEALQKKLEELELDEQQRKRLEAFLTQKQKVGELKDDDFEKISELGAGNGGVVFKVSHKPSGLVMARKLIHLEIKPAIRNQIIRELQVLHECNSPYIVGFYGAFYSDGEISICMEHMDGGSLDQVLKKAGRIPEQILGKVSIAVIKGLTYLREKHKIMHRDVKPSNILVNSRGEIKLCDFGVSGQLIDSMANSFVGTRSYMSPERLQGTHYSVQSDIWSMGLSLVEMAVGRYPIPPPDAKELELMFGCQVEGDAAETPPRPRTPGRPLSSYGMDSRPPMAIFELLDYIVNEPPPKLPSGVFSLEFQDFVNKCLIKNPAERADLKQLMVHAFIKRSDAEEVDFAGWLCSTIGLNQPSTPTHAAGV

In turn, `CN(C(=O)CN1CCOCC1)c1ccc2sc3c(-c4cccc5c(=O)cc(N6CC7CCC(C6)O7)oc45)cccc3c2c1` [NU5455] had an inhibition at 1 µM of 8.8%.

Broadly, the inhibition is the drop in the measured response relative to a control, in per cent. Lower therefore signals a response near the control.
